Source: US10392383B2, “3-(1H-benzo[d]imidazol-2-yl)-1H-pyrazolo[4,3-b]pyridines and therapeutic uses thereof” (Samumed, LLC, priority 2015, dated 2019)

What was measured:
Type in all cases: cell-based
[1] = system: primary human mesenchymal stem cells (hMSCs); assay: Induction of chondrogenesis in human mesenchymal stem cells (nodule staining with Rhodamine B / Nile Red); conditions: for Emax: TGF-β3 (10 ng/mL) as positive control, read-out: Max. Activity as % TGF-β3 activity; for EC50: concentration required to induce 50% levels of chondrogenesis vs TGF-β3, read-out: Conc (nM) of 50% TGF-β3 activity
Method: Representative compounds were screened using primary human mesenchymal stem cells (hMSCs) to determine their ability to induce chondrogenesis (process by which cartilage is developed).
Human Mesenchymal Stem Cell Culture: Primary human mesenchymal stem cells (hMSCs) were purchased from Lonza (Walkersville, Md.) and expanded in Mesenchymal Stem Cell Growth Media (Lonza). Cells between passage 3 and 6 were used for the experiments.
Compound Screening: Each compound was dissolved in DMSO as a 10 mM stock and used to prepare compound source plates. For the 96 well assay, serial dilution (1:3, 6-point dose-response curves from 2700 nM to 10 nM) and compound transfer was performed using the ECHO 550 (Labcyte, Sunnyvale, Calif.) into 96-well clear bottom assay plates (Greiner Bio-One) with appropriate DMSO backfill for a final DMSO concentration of 0.03%. hMSCs were plated at 20,000 cells/well in 250 μL/well Incomplete Chondrogenic Induction Medium (Lonza; DMEM, dexamethasone, ascorbate, insulin-transferrin-selenium [ITS supplement], gentamycin-amphotericin [GA-1000], sodium pyruvate, proline and L-glutamine). TGF-β3 (10 ng/mL) was used as a positive control for differentiation while negative control wells were treated with 75 nL DMSO for normalization and calculating EC50 values. For the 384 well assay, serial dilution (1:3, 8-point dose-response curves from 5000 nM to 2.2 nM) and compound transfer was performed using the ECHO 550 (Labcyte, Sunnyvale, Calif.) into 384-well clear bottom assay plates (Greiner Bio-One) with appropriate DMSO backfill for a final DMSO concentration of 0.03%. hMSCs were plated at 8,000 cells/well in 80 μL/well Incomplete Chondrogenic Induction Medium (Lonza; DMEM, dexamethasone, ascorbate, insulin-transferrin-selenium [ITS supplement], gentamycin-amphotericin [GA-1000], sodium pyruvate, proline and L-glutamine). TGF-β3 (10 ng/mL) was used as a positive control for differentiation while negative control wells were treated with 25 nL DMSO for normalization and calculating EC50 values. Cells were incubated at 37° C. and 5% CO2 for 6 days. To image chondrogenic nodules, the cells were fixed using 4% formaldehyde (Electron Microscopy Sciences), and stained with 2 μg/mL Rhodamine B (Sigma-Aldrich) and 20 μM Nile Red (Sigma-Aldrich) [Johnson K., et. al, A Stem Cell-Based Approach to Cartilage Repair, Science, (2012), 336(6082), 717-721]. The nodules imaged (25 images per well for 96 well plates and 9 images per well for 384 well plates at 10× magnification) by excitation at 531 nm and emission at 625 nm and quantified using the CellInsight CX5 (Thermo Scientific). Area of nodules in each well was normalized to the average of 3 DMSO treated wells on the same plate using Excel (Microsoft Inc.). The normalized averages (fold change over DMSO) of 2 or 3 replicate wells for each compound concentration were calculated. Due to solubility limitations of some of the compounds, curve fitting was incomplete leading to inaccurate EC50 determinations.
Using TGF-β3 as a positive control, the concentration of representative compounds required to induce 50% levels of chondrogenesis is reported. In addition, the maximum activity of each compound and the respective dose that each compound reached maximum chondrogenesis activity is reported.

IL-6 (THP-1 cells) = assay: IL-6 inhibition in LPS-stimulated THP-1 monocytes (HTRF); conditions: Homo sapiens, IL-6 HTRF; for EC50: 500 ng/mL LPS, Table 6; for inhibition at 10 µM: LPS, Table 6, read-out: percent inhibition at 10 μM (given in parentheses for EC50 >10 μM)
How it was run: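 THP-1 cells in 1% FBS pre-incubated 2 h with compound (10-point 1:3 series from 10 μM, 0.1% DMSO), then stimulated with 500 ng/mL LPS for 22 h at 37 °C. IL-6 measured by HTRF 665/620 ratio, normalized to DMSO; EC50 by four-parameter fit, or % inhibition at 10 μM when EC50 >10 μM.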

SW480 colon cancer cells = assay: Cell viability assay (CellTiter-Blue) in SW480 cells; conditions: Homo sapiens, 96 h, four days; for inhibition at 10 µM: read-out: percent inhibition at 10 μM (given for EC50 of >10 μM); for EC50: CellTiter-Blue, 10 μM to 0.0045 μM
How it was run: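 SW480 cells (~2×10^3 per well) were exposed to compound for four days at 37 °C/5% CO2, using 8-point 1:3 dilutions from 10 μM to 0.0045 μM in duplicate. Viability was read by resazurin reduction (CellTiter-Blue, ~3 h, Ex 560/Em 590 nm). EC50 came from non-linear regression; above 10 μM, percent inhibition at 10 μM is given.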

Compound	EC50 (IL-6 (THP-1 cells)) [µM]	EC50 (SW480 colon cancer cells) [µM]	EC50 [1] [nM]	Emax [1] [%]	inhibition at 10 µM (SW480 colon cancer cells) [%]	inhibition at 10 µM (IL-6 (THP-1 cells)) [%]
Fc1cccc(-c2cccc3[nH]c(-c4n[nH]c5ccc(C6=CCNCC6)nc45)nc23)c1 [Compound 506, 3-(4-(3-Fluorophenyl)-1H-benzo[d]imidazol-2-yl)-5-(1,2,3,6-tetrahydropyridin-4-yl)-1H-pyrazolo[4,3-b]pyridine]	> 10	4.16		42		25.9
Fc1cccc(-c2cccc3[nH]c(-c4n[nH]c5ccc(-c6cn[nH]c6)nc45)nc23)c1 [Compound 507, 3-(4-(3-Fluorophenyl)-1H-benzo[d]imidazol-2-yl)-5-(1H-pyrazol-4-yl)-1H-pyrazolo[4,3-b]pyridine]	> 10	0.975		53		31.7
Fc1cccc(-c2cccc3[nH]c(-c4n[nH]c5ccc(-c6cnccn6)nc45)nc23)c1 [Compound 520, 3-(4-(3-Fluorophenyl)-1H-benzo[d]imidazol-2-yl)-5-(pyrazin-2-yl)-1H-pyrazolo[4,3-b]pyridine]	> 10	1.79	2	64		43.3
COc1cccc(-c2cccc3[nH]c(-c4n[nH]c5ccc(-c6cncc(NC(=O)Cc7ccccc7)c6)nc45)nc23)c1 [Compound 1000, N-(5-(3-(4-(3-Methoxyphenyl)-1H-benzo[d]imidazol-2-yl)-1H-pyrazolo[4,3-b]pyridin-5-yl)pyridin-3-yl)-2-phenylacetamide]	0.812	4.13	900	50		
Clc1ccc(-c2cccc3[nH]c(-c4n[nH]c5ccc(-c6cncc(CN7CCCC7)c6)nc45)nc23)s1 [Compound 1049, 3-(4-(5-Chlorothiophen-2-yl)-1H-benzo[d]imidazol-2-yl)-5-(5-(pyrrolidin-1-ylmethyl)pyridin-3-yl)-1H-pyrazolo[4,3-b]pyridine]	> 10	0.584		408		48.3
O=C(Nc1cncc(-c2ccc3[nH]nc(-c4nc5c(-c6ccc(Cl)s6)cccc5[nH]4)c3n2)c1)C1CCC1 [Compound 1056, N-(5-(3-(4-(5-Chlorothiophen-2-yl)-1H-benzo[d]imidazol-2-yl)-1H-pyrazolo [4,3-b]pyridin-5-yl)pyridin-3-yl)cyclobutanecarboxamide]	> 10	> 10	10	100	0	47.8
CN1CCN(c2cccc3[nH]c(-c4n[nH]c5ccc(-c6cncc(NC(=O)C(F)(F)F)c6)nc45)nc23)CC1 [Compound 1127, 2,2,2-Trifluoro-N-(5-(3-(4-(4-methylpiperazin-1-yl)-1H-benzo[d]imidazol-2-yl)-1H-pyrazolo[4,3-b]pyridin-5-yl)pyridin-3-yl)acetamide]	7.09	9.42	30	51		

Continued, in another order:

EC50 (IL-6 (THP-1 cells)) [µM]	EC50 (SW480 colon cancer cells) [µM]	EC50 [1] [nM]	Compound	Emax [1] [%]	inhibition at 10 µM (SW480 colon cancer cells) [%]	inhibition at 10 µM (IL-6 (THP-1 cells)) [%]
1.09	> 10		O=C(Cc1ccccc1)Nc1cncc(-c2ccc3[nH]nc(-c4nc5ccccc5[nH]4)c3n2)c1 [Compound 262, N-(5-(3-(1H-Benzo[d]imidazol-2-yl)-1H-pyrazolo[4,3-b]pyridin-5-yl)pyridin-3-yl)-2-phenylacetamide]	37	13.9	
5.89	1.54	10	CN(C)CCOc1cncc(-c2ccc3[nH]nc(-c4nc5c(-c6cccs6)cccc5[nH]4)c3n2)c1 [Compound 707, N,N-Dimethyl-2-((5-(3-(4-(thiophen-2-yl)-1H-benzo[d]imidazol-2-yl)-1H-pyrazolo[4,3-b]pyridin-5-yl)pyridin-3-yl)oxy)ethan-1-amine]	142		
> 10	> 10		CN(C)CC(=O)Nc1cncc(-c2ccc3[nH]nc(-c4nc5c(-c6cccc(F)c6)cccc5[nH]4)c3n2)c1 [Compound 969, 2-(Dimethylamino)-N-(5-(3-(4-(3-fluorophenyl)-1H-benzo[d]imidazol-2-yl)-1H-pyrazolo[4,3-b]pyridin-5-yl)pyridin-3-yl)acetamide]	44	25.3	39
> 10	5.94	100	COc1cccc(-c2cccc3[nH]c(-c4n[nH]c5ccc(-c6cccnc6)nc45)nc23)c1 [Compound 994, 3-(4-(3-Methoxyphenyl)-1H-benzo[d]imidazol-2-yl)-5-(pyridin-3-yl)-1H-pyrazolo[4,3-b]pyridine]	70		32.2
> 10	9.68	10	CC(C)CC(=O)Nc1cncc(-c2ccc3[nH]nc(-c4nc5c(-c6ccc(Cl)s6)cccc5[nH]4)c3n2)c1 [Compound 1037, N-(5-(3-(4-(5-Chlorothiophen-2-yl)-1H-benzo[d]imidazol-2-yl)-1H-pyrazolo [4,3-b]pyridin-5-yl)pyridin-3-yl)-3-methylbutanamide]	56		19.5
> 10	5.27	10	CC(C)(C)C(=O)Nc1cncc(-c2ccc3[nH]nc(-c4nc5c(-c6ccc(Cl)s6)cccc5[nH]4)c3n2)c1 [Compound 1043, N-(5-(3-(4-(5-chlorothiophen-2-yl)-1H-benzo[d]imidazol-2-yl)-1H-pyrazolo[4,3-b]pyridin-5-yl)pyridin-3-yl)pivalamide]	65		16.9
0.0518	4.36		O=C(Nc1cncc(-c2ccc3[nH]nc(-c4nc5c(-c6ccccc6F)cccc5[nH]4)c3n2)c1)C(F)(F)F [Compound 1126, 2,2,2-Trifluoro-N-(5-(3-(4-(2-fluorophenyl)-1H-benzo[d]imidazol-2-yl)-1H-pyrazolo[4,3-b]pyridin-5-yl)pyridin-3-yl)acetamide]	40		
